This passage reports T/C results from PubChem BioAssay AID256 (DTP/NCI, 2004).

This test relates to CD2F1 mice, L1210 leukemia ip, survival T/C. Description: NCI In Vivo Anticancer Drug Screen. Data for tumor model L1210 Leukemia (intraperitoneal) in CD2F1 (CDF1) mice. The note with it: endpoint: mean survival time, higher = longer survival. The essentials: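 Vehicle-treated tumor-bearing mice served as controls (C) for compound-treated mice (T). Reported figure is T divided by C.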

The mark [1] stands for this setting: dose: 100.0 mg/kg/injection, schedule: Q01DX009 (ip), vehicle: saline with Tween-80.
[2] abbreviates: dose: 200.0 mg/kg/injection, schedule: Q01DX009 (ip), vehicle: saline with Tween-80.
The mark [3] stands for this setting: dose: 400.0 mg/kg/injection, schedule: Q01DX009 (ip), vehicle: saline with Tween-80.

Values joined by “and” are separate entries in the source; they are usually repeats but may differ in a detail not shown here. Equal entries are not always repeated. Toxic doses and inconclusive results are not listed.

Consider `CSc1nnc(Sc2ccccc2)c(SC)n1`, for which the T/C reads like this: (dose: 75.0 mg/kg/injection, schedule: Q01DX001 (ip), vehicle: saline) 101 % of control; (dose: 150.0 mg/kg/injection, schedule: Q01DX001 (ip), vehicle: saline) 98 % of control.

In the case of `NC(C(=O)O)C(O)c1cnc[nH]1` (stereo not drawn), the T/C reads like this: (dose: 12.5 mg/kg/injection, schedule: Q01DX009 (ip), vehicle: water) 96 % of control; (dose: 25.0 mg/kg/injection, schedule: Q01DX009 (ip), vehicle: water) 100 % of control; (dose: 50.0 mg/kg/injection, schedule: Q01DX009 (ip), vehicle: water) 100 % of control; (dose: 100.0 mg/kg/injection, schedule: Q01DX009 (ip), vehicle: water) 104 % of control; (dose: 200.0 mg/kg/injection, schedule: Q01DX009 (ip), vehicle: water) 102 % of control.

Consider `[Cl][Pt+2][Cl].[NH-]CC1([NH-])CCCCC1`, for which the T/C by setting is: (dose: 0.19 mg/kg/injection, schedule: Q04DX003 (ip), vehicle: saline with Tween-80) 107 % of control; (dose: 0.39 mg/kg/injection, schedule: Q04DX003 (ip), vehicle: saline with Tween-80) 107 % of control; (dose: 0.79 mg/kg/injection, schedule: Q04DX003 (ip), vehicle: saline with Tween-80) 113 % of control; (dose: 1.56 mg/kg/injection, schedule: Q04DX003 (ip), vehicle: saline with Tween-80) 114 % of control; (dose: 3.13 mg/kg/injection, schedule: Q04DX003 (ip), vehicle: saline) 202 % of control; (dose: 6.25 mg/kg/injection, schedule: Q04DX003 (ip), vehicle: saline) 184 % of control. Besides, the T/C (dose: 12.5 mg/kg/injection, schedule: Q04DX003 (ip), vehicle: saline with Tween-80) was 244 % of control.

As for `CC(=O)/C(=C\c1ccccc1)CNC1CCCCC1`, the T/C (dose: 6.25 mg/kg/injection, schedule: Q01DX001 (ip), vehicle: saline with Tween-80) is 96 % of control and the T/C (dose: 12.5 mg/kg/injection, schedule: Q01DX001 (ip), vehicle: saline with Tween-80) is 104 % of control.

`O=C1C=C(NCCO)C(=O)C=C1NCCO`: the T/C by setting is: (dose: 100.0 mg/kg/injection, schedule: Q01DX001 (ip), vehicle: saline with Tween-80) 98 % of control; (dose: 200.0 mg/kg/injection, schedule: Q01DX001 (ip), vehicle: saline with Tween-80) 90 % of control; (dose: 400.0 mg/kg/injection, schedule: Q01DX001 (ip), vehicle: saline with Tween-80) 95 % of control.

With `Cc1ncoc1C(=O)O`, the T/C reads like this: (dose: 100.0 mg/kg/injection, schedule: Q04DX003 (ip), vehicle: saline with Tween-80) 109 % of control; (dose: 200.0 mg/kg/injection, schedule: Q04DX003 (ip), vehicle: saline with Tween-80) 104 % of control.

Take `COC(=O)C(CCl)NC(C)=O` (stereo not drawn): the T/C is 96 % of control and 101 % of control under setting [1]; 96 % of control and 102 % of control under setting [2]; 108 % of control and 98 % of control under setting [3].

Consider `c1ccc(P(=N[P+](c2ccccc2)(c2ccccc2)c2ccccc2)(c2ccccc2)c2ccccc2)cc1`, for which the T/C reads like this: (dose: 0.75 mg/kg/injection, schedule: Q01DX009 (ip), vehicle: saline) 106 % of control; (dose: 1.5 mg/kg/injection, schedule: Q01DX009 (ip), vehicle: saline) 103 % of control; (dose: 3.13 mg/kg/injection, schedule: Q01DX009 (ip), vehicle: saline with Tween-80) 94 % of control; (dose: 3.13 mg/kg/injection, schedule: Q04DX002 (ip), vehicle: saline with Tween-80) 102 % of control; (dose: 6.25 mg/kg/injection, schedule: Q04DX002 (ip), vehicle: saline with Tween-80) 110 % of control; (dose: 12.5 mg/kg/injection, schedule: Q04DX002 (ip), vehicle: saline with Tween-80) 90 % of control and 93 % of control.

With `C=C1C(=O)O[C@@H]2[C@H]1CC[C@H](C)[C@]1(O)CCC(=O)[C@@]21C`, the T/C by setting is: under setting [1], 98 % of control; under setting [2], 101 % of control; under setting [3], 110 % of control.
